Experiments:
Type in all cases: in vivo
Conditions in all cases: 5 mg/kg oral gavage
FAAH = FAAH (Mus musculus (Mouse), UniProt O08914); assay: Mouse brain proteomes from inhibitor treated mice (oral gavage, sacrifice 4 h after administration, ABPP analysis), FAAH
How it was run: (§1)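 Compounds were given by oral gavage to wild-type C57Bl/6J mice in a vehicle such as PEG400/Ethanol/PBS (7/2/1). Animals were sacrificed 4 h after dosing, and brain proteomes were prepared and analyzed by established ABPP methods. Values are % inhibition at 5 mg/kg.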

ABHD6 = ABHD6 (Mus musculus (Mouse), UniProt Q8R2Y0); assay: Mouse brain proteomes from inhibitor treated mice (oral gavage, sacrifice 4 h after administration, ABPP analysis), ABHD6
ABHD6, sequence (Q8R2Y0 whole entry): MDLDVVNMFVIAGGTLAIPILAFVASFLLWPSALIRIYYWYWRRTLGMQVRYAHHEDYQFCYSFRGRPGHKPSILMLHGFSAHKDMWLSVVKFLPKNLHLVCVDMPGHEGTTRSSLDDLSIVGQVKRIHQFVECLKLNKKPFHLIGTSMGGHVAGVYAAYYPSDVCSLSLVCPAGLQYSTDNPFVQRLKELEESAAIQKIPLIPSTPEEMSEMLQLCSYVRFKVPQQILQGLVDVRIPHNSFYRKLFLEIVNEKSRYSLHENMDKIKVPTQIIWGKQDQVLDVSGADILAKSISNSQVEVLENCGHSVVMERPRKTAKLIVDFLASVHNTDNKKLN
How it was run: as §1

MAGL = MAGL (Mus musculus (Mouse), UniProt O35678); assay: Mouse brain proteomes from inhibitor treated mice (oral gavage, sacrifice 4 h after administration, ABPP analysis)
MAGL, sequence (O35678 whole entry): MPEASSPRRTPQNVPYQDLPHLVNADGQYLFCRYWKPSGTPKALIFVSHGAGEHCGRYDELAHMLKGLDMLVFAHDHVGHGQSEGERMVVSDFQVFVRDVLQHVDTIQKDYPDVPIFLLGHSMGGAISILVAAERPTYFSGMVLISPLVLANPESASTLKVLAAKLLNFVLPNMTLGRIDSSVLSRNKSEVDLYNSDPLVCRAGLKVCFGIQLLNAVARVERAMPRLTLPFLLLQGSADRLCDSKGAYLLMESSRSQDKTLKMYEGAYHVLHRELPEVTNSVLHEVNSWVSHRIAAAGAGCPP
How it was run: as §1

FAAH, sequence (O08914 whole entry): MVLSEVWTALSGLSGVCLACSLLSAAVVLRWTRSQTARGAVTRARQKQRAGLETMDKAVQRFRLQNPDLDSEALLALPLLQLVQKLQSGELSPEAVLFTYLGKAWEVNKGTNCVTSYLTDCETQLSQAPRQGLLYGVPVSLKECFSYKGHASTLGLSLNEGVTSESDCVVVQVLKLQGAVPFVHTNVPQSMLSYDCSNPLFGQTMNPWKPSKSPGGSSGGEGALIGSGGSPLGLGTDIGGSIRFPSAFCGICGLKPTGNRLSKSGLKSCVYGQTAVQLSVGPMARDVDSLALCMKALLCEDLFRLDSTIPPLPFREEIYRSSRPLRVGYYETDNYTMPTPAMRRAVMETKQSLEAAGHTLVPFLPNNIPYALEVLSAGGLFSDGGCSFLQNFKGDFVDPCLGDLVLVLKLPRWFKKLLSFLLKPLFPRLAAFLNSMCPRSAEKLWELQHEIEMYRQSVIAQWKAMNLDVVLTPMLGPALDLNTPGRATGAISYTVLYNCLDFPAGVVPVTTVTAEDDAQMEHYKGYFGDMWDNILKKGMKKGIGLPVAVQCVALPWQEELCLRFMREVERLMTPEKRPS

FAAH % Inh 5 mg/kg (mouse) (FAAH)	ABHD6 % Inh 5 mg/kg (mouse) (ABHD6)	MAGL % Inh 5 mg/kg (mouse) (MAGL)	Structure (SMILES)
# (# is < 25%)	# (# is < 25%)	# (# is < 25%)	CN1CCC(Oc2cc(CN3CCCC34CCN(C(=O)OC(C(F)(F)F)C(F)(F)F)CC4)cc(C(F)(F)F)c2)CC1 [Example 166, 1,1,1,3,3,3-Hexafluoropropan-2-yl 1-(3-(1-methylpiperidin-4-yloxy)-5-(trifluoromethyl)benzyl)-1,8-diazaspiro[4.5]decane-8-carboxylate]
# (# is < 25%)	# (# is < 25%)	# (# is < 25%)	CC1(C(=O)O)CN(c2cc(CN3CCCC34CCN(C(=O)OC(C(F)(F)F)C(F)(F)F)CC4)cc(C(F)(F)F)c2)CCO1 (stereo not drawn) [Example 195, 4-(3-((8-(((1,1,1,3,3,3-hexafluoropropan-2-yl)oxy)carbonyl)-1,8-diazaspiro[4.5]decan-1-yl)methyl)-5-(trifluoromethyl)phenyl)-2-methylmorpholine-2-carboxylic acid]
# (# is < 25%)	# (# is < 25%)	### (### is ≥ 75%)	O=C(O)[C@@H]1CCCCN1c1cc(CN2CCCC23CCN(C(=O)OC(C(F)(F)F)C(F)(F)F)CC3)cc(C(F)(F)F)c1 [Example 196, (S)-1-(3-((8-(((1,1,1,3,3,3-Hexafluoropropan-2-yl)oxy)carbonyl)-1,8-diazaspiro[4.5]decan-1-yl)methyl)-5-(trifluoromethyl)phenyl)piperidine-2-carboxylic acid]
# (# is < 25%)	# (# is < 25%)	# (# is < 25%)	O=C(O)C1CN(c2cc(C(F)(F)F)ccc2CN2CCCC23CCN(C(=O)OC(C(F)(F)F)C(F)(F)F)CC3)CCO1 (stereo not drawn) [Example 197, 4-(2-((8-(((1,1,1,3,3,3-Hexafluoropropan-2-yl)oxy)carbonyl)-1,8-diazaspiro[4.5]decan-1-yl)methyl)-5-(trifluoromethyl)phenyl)morpholine-2-carboxylic acid]
# (# is < 25%)	# (# is < 25%)	### (### is ≥ 75%)	O=C(O)[C@@H]1CCCN(c2cc(C(F)(F)F)ccc2CN2CCCC23CCN(C(=O)OC(C(F)(F)F)C(F)(F)F)CC3)C1 [Example 214]
# (# is < 25%)	# (# is < 25%)	### (### is ≥ 75%)	O=C(O)[C@H]1CCCN(c2cc(C(F)(F)F)ccc2CN2CCCC23CCN(C(=O)OC(C(F)(F)F)C(F)(F)F)CC3)C1 [Example 217]
# (# is < 25%)	# (# is < 25%)	### (### is ≥ 75%)	CC1(C(=O)O)CCCN(c2cc(CN3CCCC34CCN(C(=O)OC(C(F)(F)F)C(F)(F)F)CC4)cc(C(F)(F)F)c2)C1 (stereo not drawn) [Example 221]
# (# is < 25%)	# (# is < 25%)	### (### is ≥ 75%)	O=C(O)C1CCN(c2cc(F)cc(CN3CCCC34CCN(C(=O)OC(C(F)(F)F)C(F)(F)F)CC4)c2)CC1 [Example 236]
# (# is < 25%)	# (# is < 25%)	### (### is ≥ 75%)	O=C(O)C1CCN(Cc2cc(C(F)(F)F)ccc2CN2CCCC23CCN(C(=O)OC(C(F)(F)F)C(F)(F)F)CC3)CC1 [Example 238]
# (# is < 25%)	# (# is < 25%)	### (### is ≥ 75%)	O=C(O)C1CCN(Cc2cc(CN3CCCC34CCN(C(=O)OC(C(F)(F)F)C(F)(F)F)CC4)cc(C(F)(F)F)c2)CC1 [Example 244]

Second part, the compound before the results:

Structure (SMILES)	FAAH % Inh 5 mg/kg (mouse) (FAAH)	ABHD6 % Inh 5 mg/kg (mouse) (ABHD6)	MAGL % Inh 5 mg/kg (mouse) (MAGL)
O=C(OC(C(F)(F)F)C(F)(F)F)N1CCC2(CCCN2Cc2ccc(C(F)(F)F)c(N3CCOCC3)c2)CC1 [Example 133, 1,1,1,3,3,3-Hexafluoropropan-2-yl 1-(3-morpholino-4-(trifluoromethyl)benzyl)-1,8-diazaspiro[4.5]decane-8-carboxylate]	# (# is < 25%)	# (# is < 25%)	### (### is ≥ 75%)
O=C(OC(C(F)(F)F)C(F)(F)F)N1CCC2(CCCN2Cc2ccc(C(F)(F)F)c(N3CCCC3)c2)CC1 [Example 134, 1,1,1,3,3,3-Hexafluoropropan-2-yl 1-(3-(pyrrolidin-1-yl)-4-(trifluoromethyl)benzyl)-1,8-diazaspiro[4.5]decane-8-carboxylate]	# (# is < 25%)	# (# is < 25%)	### (### is ≥ 75%)
CCc1cc(CN2CCCC23CCN(C(=O)OC(C(F)(F)F)C(F)(F)F)CC3)ccc1F [Example 150, 1,1,1,3,3,3-Hexafluoropropan-2-yl 1-(3-ethyl-4-fluorobenzyl)-1,8-diazaspiro[4.5]decane-8-carboxylate]	# (# is < 25%)	# (# is < 25%)	### (### is ≥ 75%)
CCc1cc(CN2CCC3(CCN(C(=O)OC(C(F)(F)F)C(F)(F)F)CC3)C2)ccc1F [Example 152, 1,1,1,3,3,3-Hexafluoropropan-2-yl 2-(3-ethyl-4-fluorobenzyl)-2,8-diazaspiro[4.5]decane-8-carboxylate]	# (# is < 25%)	### (### is ≥ 75%)	### (### is ≥ 75%)
O=C(OC(C(F)(F)F)C(F)(F)F)N1CCC2(CCCN2Cc2cc(Oc3nc4ccccc4s3)cc(C(F)(F)F)c2)CC1 [Example 172, 1,1,1,3,3,3-Hexafluoropropan-2-yl 1-(3-(benzo[d]thiazol-2-yloxy)-5-(trifluoromethyl)benzyl)-1,8-diazaspiro[4.5]decane-8-carboxylate]	# (# is < 25%)	# (# is < 25%)	# (# is < 25%)
Cc1cc(CN2CCCC23CCN(C(=O)OC(C(F)(F)F)C(F)(F)F)CC3)ccc1C(F)(F)F [Example 177, 1,1,1,3,3,3-Hexafluoropropan-2-yl 1-(3-methyl-4-(trifluoromethyl)benzyl)-1,8-diazaspiro[4.5]decane-8-carboxylate]	# (# is < 25%)	# (# is < 25%)	### (### is ≥ 75%)
O=C(OC(C(F)(F)F)C(F)(F)F)N1CCC2(CCCN2Cc2ccc(C(F)(F)F)c(Cl)c2)CC1 [Example 183, 1,1,1,3,3,3-Hexafluoropropan-2-yl 1-(3-chloro-4-(trifluoromethyl)benzyl)-1,8-diazaspiro[4.5]decane-8-carboxylate]	# (# is < 25%)	# (# is < 25%)	### (### is ≥ 75%)
O=C(OC(C(F)(F)F)C(F)(F)F)N1CCC2(CCCN2Cc2ccc(Cl)c(C(F)(F)F)c2)CC1 [Example 184, 1,1,1,3,3,3-Hexafluoropropan-2-yl 1-(4-chloro-3-(trifluoromethyl)benzyl)-1,8-diazaspiro[4.5]decane-8-carboxylate]	# (# is < 25%)	# (# is < 25%)	### (### is ≥ 75%)
O=C(O)C1CCN(c2cc(S(F)(F)(F)(F)F)ccc2CN2CCCC23CCN(C(=O)OC(C(F)(F)F)C(F)(F)F)CC3)CC1 [Example 240]	# (# is < 25%)	# (# is < 25%)	### (### is ≥ 75%)

Reference: patent publication US10781211B2, “Spirocycle compounds and methods of making and using same” (Lundbeck La Jolla Research Center, Inc., priority 2016, dated 2020)
